Here are results for six molecules from patent publication US20160031937A1, “NEURAL REGENERATION PEPTIDES AND USES THEREFOR” (CURONZ HOLDINGS COMPANY LIMITED, priority 2013, published 2016).

In data set [1] the test system is human W9-hESCs. The format is cell-based. To be noted: 300 nM AMD3100, normoxic and OGD conditions. As for the experimental part: Experiments with human embryonic stem cells (hESC) were carried out in accordance with the guidelines and regulations of the NHMRC and with the approval of the Austin Health Human Research Ethics Committee (Approval number H2008/03194), and University of Melbourne Human Research Ethics Committee (Approval number 0605017). H9 (WA-09, WiCell) cell lines were grown as previously described (Dottori & Pera, 2007).
Briefly, hESC were cultured on mitomycin-C treated mouse embryonic fibroblasts (MEFs) in hESC medium consisting of high-glucose Dulbecco's Modified Eagle Medium (DMEM) without sodium pyruvate, supplemented with 1% insulin/transferrin/selenium, 0.1 mM β-mercaptoethanol, 1% nonessential amino acids (NEAA), 2 mM glutamine, 25 U/ml penicillin, 25 μg/ml streptomycin (all from Invitrogen) and 20% fetal calf serum (FCS) (Hyclone).
Alternatively, hESC were cultured on mitomycin-C treated human foreskin fibroblasts (HFF; ATCC, CRL-2097) in KSR media consisting of DMEM/nutrient mixture F-12, supplemented with 0.1 mM […], 1% nonessential amino acids (NEAA), 2 mM glutamine, 25 U/ml penicillin, 25 μg/ml streptomycin and 20% knockout serum replacement (all from Invitrogen).
All cells were cultured at 37° C. in 5% CO2 with 100% humidity. Colonies were mechanically dissected every 7 days (subcultivated or passaged) and transferred to freshly prepared MEFs or HFFs. Media was changed every second day.
Neuronal differentiation was achieved using the noggin induction method described for mouse neurospheres as adapted by Dottori for human neurospheres (Dottori & Pera, 2007). The colonies were maintained at 37° C., with 5% CO2 in hESC medium supplemented with 500 ng/ml of Noggin for 14 days while replacing Noggin every other day.
At this point, the cells were washed with PBS and the colonies were again mechanically dissociated, but this time the central (differentiated) part of the colony was also cut into smaller pieces using a 26-gauge needle. The pieces were transferred to individual wells in a low adherent 96-well plate containing Neurobasal®A (NBM) (Invitrogen) supplemented with 1× X B-27® (Invitrogen) and 1× N-2 (Invitrogen) 20 ng/ml human recombinant EGF and 20 ng/ml human recombinant bFGF (Pharmacia). Media was changed every 2 to 3 days to allow neurosphere formation over 2 weeks.
In order to facilitate neuronal differentiation, neurospheres were again separated into smaller pieces under a dissection microscope, and three to four pieces were transferred to each well of a 96-well plate. Prior to this transfer, the plate was pre-coated with poly-D-lysine (10 μg/ml in PBS), washed in PBS, recoated with mouse laminin (5 μg/ml in PBS), and washed again. The cells were then grown for 11 days (with media changed every two days) in NBM lacking growth factors prior to induction of injury and assessment of hypothermia.
On the day of experiments, the medium was changed to NBM+N2 containing a B27 preparation lacking the usual antioxidants (Invitrogen; 10889-038) to eliminate their confounding effects (NBM-AO).
To maintain isoosmotic pressure conditions, 25 mM 2-deoxy-D-glucose was added to NBM-AO medium and equilibrated for 30 minutes at room temperature before the initial media change as described above. […] Culture supernatant was removed after this 4 hour period and stored at 4° C. until analysed for lactate dehydrogenase (LDH) activity.
The media was replaced with fresh NBM-AO and the cells were incubated for a further 20 hours containing drug, before again measuring LDH. Oxidative stress was induced by adding 50 μM fresh H2O2 (Sigma, H1009) to the growth factor negative NBM on initiation of the experiment with continued culture for 4 hours when LDH was measured and NBM-AO without H2O2 was returned to the culture which was maintained for a further 20 hours before again measuring LDH.

Data set [2] has as its system cerebellar granule cells. The experiment in a line: Survival of cerebellar microexplants under glutamate and 3-NP toxicity. The format is cell-based, Wistar rats. The note with it: for block of NNZ-4921 neuronal survival-promoting activity: glutamate and 3-NP toxicity, 48 hours, eotaxin-3 10 and 100 nM, AMD3100 300 nM, co-administered with NNZ-4921. The protocol: Glass coverslips were obtained from New Zealand BioLabs, size 18 mm×18 mm. The coverslips were placed in a 150 mm Petri dish, at 8 cover slips per dish. Both sides of the coverslips were soaked and washed in absolute ethanol. The ethanol was discarded, and autoclaved MilliQ® was added to rinse both sides of coverslips. The water was then discarded, and the coverslips were air dried under the laminar flow.
Poly-D-lysine (PDL) was obtained from Sigma (P7280, lyophilized powder, γ-irradiated, average mol wt 30,000-70,000, cell culture tested). This was diluted with autoclaved PBS to make a stock solution of 1 mg/ml. The stock solution was divided into aliquots of 500 μl/tube and stored at −20° C.
For experiments, the stock solution of PDL was diluted with PBS 1:10 to make working solution of with a final concentration of 100 μg/ml. Approximately 100 μl of the PDL working solution was added to the coverslips and this was incubated at 34° C. for 2 hours (minimum) to overnight.
Next, more than 10 ml autoclaved MilliQ® was added into each Petri dish and the PDL-coated coverslips were rinsed. The coverslips were then transferred to 6 well culture plates. After air drying, the plates were wrapped in foil and stored at 4° C. until use. Storage was possible for up to 2 weeks.
Rat pups were used for this experiment (Wistar rats), either P3/4 or P7/8.
For extraction of P3/4 cerebellar cortices, 0.5 ml of ice-cold PBS/0.65% D(+)-glucose buffer was placed into a Petri dish and the tissue was placed into this solution. For extraction of P7/8 cerebellar cortices, 1.0 ml of ice-cold PBS/0.65% D(+)-glucose buffer was placed into a Petri dish and the tissue was placed into this solution.
The laminated cerebellar cortex was removed surgically and stored immediately in ice-cold PBS/0.65% D(+)-glucose buffer using the amounts as noted above. The cortex was then transferred to a Petri dish, and the meninges were removed from the cerebellar. The tissue was sliced by scissors, and passed once (P3/P4 pups) or twice (P7/P8 pups) through a 23-gauge sized needle attached to a 1 cc syringe to obtain uniformly sized microexplants. This was set aside in a Petri dish.
Next, the tissue was transferred into a 15 ml Falcon tube and centrifuged for 2 minutes at 350 rpm, at 4° C. The PBS/Glu(+) buffer was carefully discarded using a pipette. The pellet was resuspended in cold Neurobasal® medium (Invitrogen), at 1 ml per pup. This was centrifuged for 2 minutes at 350 rpm (60XG), at 4° C.
The medium was discarded and the pellet was resuspended in warm Neurobasal® medium, at 0.5 ml per P3/4 pup and 1.5 ml per P7/8 pup. This was then seeded on PDL-coated cover slips in 6 well plates at a volume of 40-45 μl per coverslip.
The coverslips were incubated at 34° C., in 5% CO2, with 100% humidity for 45 minutes to 1.5 hours to allow adherence. Then, 1 ml of Neurobasal® medium was added per well and the microexplants were checked under a microscope for adherence.
The toxins 3-nitropropionic acid and glutamate were prepared at 100× concentrations. For 50 mM 3-nitropropionic acid (Sigma), the stock solution was titrated with NaOH to a pH value of 7-7.2. For 50 mM L-glutamate, this was dissolved under heat (hot water).
As a negative control, 10 μl of 3-nitropropionic acid and 10 μl of glutamate was administered (4 wells). As a positive control, 20 μl of PBS was administered to normoxic microexplants without any toxins (4 wells). […]

Data set [3] deals with T1, homodimeric CXCR4 receptor (Homo sapiens, UniProt P61073).
T1 construct: host or cells: HEK293
T1 sequence (P61073 whole entry): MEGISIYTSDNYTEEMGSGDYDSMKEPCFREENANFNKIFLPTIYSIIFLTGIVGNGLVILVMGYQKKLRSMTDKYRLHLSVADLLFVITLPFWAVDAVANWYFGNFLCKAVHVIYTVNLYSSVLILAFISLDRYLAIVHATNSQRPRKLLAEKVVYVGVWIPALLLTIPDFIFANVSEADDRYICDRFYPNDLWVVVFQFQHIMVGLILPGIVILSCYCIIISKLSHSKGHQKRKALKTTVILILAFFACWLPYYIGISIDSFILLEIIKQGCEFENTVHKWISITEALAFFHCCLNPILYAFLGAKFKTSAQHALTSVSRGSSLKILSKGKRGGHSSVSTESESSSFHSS
The experiment in a line: 125I-SDF-1 displacement binding study (CEREP). The note with it: recombinant homodimeric CXCR4 expressing HEK293 cells; unlabelled peptide in competition. As for the experimental part:
This was determined by radioactive ^125I-SDF-1 displacement studies using CXCR4 homodimeric receptors and unlabelled NNZ-4921 and NRP2945 in competition.

Data set [4] deals with neuronal stem cells. The note with it: cited from earlier work.
Data set [5] addresses T2, homodimeric CXCR4 receptor (recombinant, expressed in HEK293 cells) (UniProt P61073 1-352, limits assumed).
T2 construct: whole, on cells; also called CXCR4 homodimeric receptors; homodimeric CXCR4 receptor complex
The experiment in a line: 125I-SDF-1 displacement on HEK293 cells expressing recombinant homodimeric CXCR4 (CEREP).

Entries after “also recorded” stand apart in the source; their conditions may differ. Square brackets hold non-standard residues; d marks the D form. Ends that are not written are not given here. βAla = NCCC(=O)O

T2 sequence (P61073 whole entry): as above

With `c1cc(CN2CCCNCCNCCCNCC2)ccc1CN1CCCNCCNCCCNCC1` [AMD3100, reference compound], the “toxicity on W9-hESCs” value in data set [1] is recorded as “did not show any toxicity”. Further, the “block of NNZ-4921 neuronal survival-promoting activity” value in data set [2] is recorded as “completely block”. Take “GRRAAPGR-β-Ala-GG (GRRAAPGR[βAla]GG) [NRP2983, synthetic 11-mer peptidomimetic closely related to NRP2945]”: the “promotion of survival of cultivated cerebellar cells” value in data set [2] (1fM NRP2983, oxidatively stressed cerebellar microexplants) stood at 70%. With GRRAAPGRAGG [NNZ-4921], the “displacement of 125I-SDF-1 from homodimeric CXCR4 receptor” value in data set [3] is reported as “not able to displace the radioactive ligand SDF-1”. The “activity of NNZ-4921 in reducing cell death in presence of eotaxin-3 in combination with AMD3100” value in data set [2] (10 fM or 100 fM NNZ-4921) is reported as “completely blocked”. On to “SDF-1: natural ligand for the CXCR4 receptor”, for which the “EC50 values for chemoattraction” value in data set [4] (SDF-1) was “lower nanomolar range”. Besides, the “minimal concentration required to chemoattract neuronal stem cells” value in data set [4] (Xu and Heilshorn, 2012) is reported as 9 nM.

Regarding “eotaxin-3: human recombinant eotaxin-3 (Pharmaco), ligand of the CCR3 receptor, partial agonist”, in data set [2], the “block of NNZ-4921 neuronal survival-promoting activity” value is “abrogation of the neuroprotective effect; also recorded: completely blocked”. Further, the “effect of eotaxin-3 alone on neuronal survival” value in data set [2] (without NNZ-4921, normoxic or oxidative/excitotoxic stress conditions) is on record as “no toxic effect; also recorded: no effect on the overall neuronal survival rate”. Take GRRAAPGRAGG [NNZ-4921]: the binding result in data set [5] is listed as “no binding”.
